Data as given in ChEMBL document CHEMBL5465560, “Selectivity Literature for EUbOPEN Chemogenomic Library” (2024).

How the values were obtained:
[1] = molecular target: T1, Peripheral plasma membrane protein CASK (Homo sapiens) (UniProt O14936); assay: Selectivity interaction (Kinase panel (DSF assay)) EUB0001558a CASK
T1 sequence (whole entry): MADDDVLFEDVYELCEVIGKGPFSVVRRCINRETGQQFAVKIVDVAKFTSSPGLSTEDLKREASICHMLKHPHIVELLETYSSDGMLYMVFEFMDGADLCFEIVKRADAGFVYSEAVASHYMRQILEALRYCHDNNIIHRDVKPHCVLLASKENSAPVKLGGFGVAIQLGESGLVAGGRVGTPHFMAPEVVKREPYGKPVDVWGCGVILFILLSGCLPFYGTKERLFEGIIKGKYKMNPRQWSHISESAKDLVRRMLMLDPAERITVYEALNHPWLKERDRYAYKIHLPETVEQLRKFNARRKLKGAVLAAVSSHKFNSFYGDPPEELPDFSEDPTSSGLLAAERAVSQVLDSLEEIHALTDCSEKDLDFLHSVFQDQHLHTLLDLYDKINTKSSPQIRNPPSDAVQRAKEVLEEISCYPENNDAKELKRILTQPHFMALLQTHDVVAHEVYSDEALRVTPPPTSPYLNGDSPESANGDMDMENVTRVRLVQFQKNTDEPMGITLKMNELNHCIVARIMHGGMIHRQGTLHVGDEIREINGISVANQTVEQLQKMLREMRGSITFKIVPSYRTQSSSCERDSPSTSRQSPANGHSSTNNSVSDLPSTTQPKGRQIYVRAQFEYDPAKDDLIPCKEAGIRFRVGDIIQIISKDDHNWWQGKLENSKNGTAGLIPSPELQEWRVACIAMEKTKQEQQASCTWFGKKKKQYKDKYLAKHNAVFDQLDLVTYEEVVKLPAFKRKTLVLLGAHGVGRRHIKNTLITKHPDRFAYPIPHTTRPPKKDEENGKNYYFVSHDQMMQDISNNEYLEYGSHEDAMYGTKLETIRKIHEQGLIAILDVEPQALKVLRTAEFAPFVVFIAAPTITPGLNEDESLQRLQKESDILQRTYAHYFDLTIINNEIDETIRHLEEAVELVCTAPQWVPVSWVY

[2] = molecular target: Mitogen-activated protein kinase kinase kinase 4 (Homo sapiens) (UniProt Q9Y6R4); assay: Selectivity interaction (KinomeScan (DiscoverX)) EUB0000092b MAP3K4; settings: at 10 µM
Mitogen-activated protein kinase kinase kinase 4 (Homo sapiens), sequence (Q9Y6R4 whole entry): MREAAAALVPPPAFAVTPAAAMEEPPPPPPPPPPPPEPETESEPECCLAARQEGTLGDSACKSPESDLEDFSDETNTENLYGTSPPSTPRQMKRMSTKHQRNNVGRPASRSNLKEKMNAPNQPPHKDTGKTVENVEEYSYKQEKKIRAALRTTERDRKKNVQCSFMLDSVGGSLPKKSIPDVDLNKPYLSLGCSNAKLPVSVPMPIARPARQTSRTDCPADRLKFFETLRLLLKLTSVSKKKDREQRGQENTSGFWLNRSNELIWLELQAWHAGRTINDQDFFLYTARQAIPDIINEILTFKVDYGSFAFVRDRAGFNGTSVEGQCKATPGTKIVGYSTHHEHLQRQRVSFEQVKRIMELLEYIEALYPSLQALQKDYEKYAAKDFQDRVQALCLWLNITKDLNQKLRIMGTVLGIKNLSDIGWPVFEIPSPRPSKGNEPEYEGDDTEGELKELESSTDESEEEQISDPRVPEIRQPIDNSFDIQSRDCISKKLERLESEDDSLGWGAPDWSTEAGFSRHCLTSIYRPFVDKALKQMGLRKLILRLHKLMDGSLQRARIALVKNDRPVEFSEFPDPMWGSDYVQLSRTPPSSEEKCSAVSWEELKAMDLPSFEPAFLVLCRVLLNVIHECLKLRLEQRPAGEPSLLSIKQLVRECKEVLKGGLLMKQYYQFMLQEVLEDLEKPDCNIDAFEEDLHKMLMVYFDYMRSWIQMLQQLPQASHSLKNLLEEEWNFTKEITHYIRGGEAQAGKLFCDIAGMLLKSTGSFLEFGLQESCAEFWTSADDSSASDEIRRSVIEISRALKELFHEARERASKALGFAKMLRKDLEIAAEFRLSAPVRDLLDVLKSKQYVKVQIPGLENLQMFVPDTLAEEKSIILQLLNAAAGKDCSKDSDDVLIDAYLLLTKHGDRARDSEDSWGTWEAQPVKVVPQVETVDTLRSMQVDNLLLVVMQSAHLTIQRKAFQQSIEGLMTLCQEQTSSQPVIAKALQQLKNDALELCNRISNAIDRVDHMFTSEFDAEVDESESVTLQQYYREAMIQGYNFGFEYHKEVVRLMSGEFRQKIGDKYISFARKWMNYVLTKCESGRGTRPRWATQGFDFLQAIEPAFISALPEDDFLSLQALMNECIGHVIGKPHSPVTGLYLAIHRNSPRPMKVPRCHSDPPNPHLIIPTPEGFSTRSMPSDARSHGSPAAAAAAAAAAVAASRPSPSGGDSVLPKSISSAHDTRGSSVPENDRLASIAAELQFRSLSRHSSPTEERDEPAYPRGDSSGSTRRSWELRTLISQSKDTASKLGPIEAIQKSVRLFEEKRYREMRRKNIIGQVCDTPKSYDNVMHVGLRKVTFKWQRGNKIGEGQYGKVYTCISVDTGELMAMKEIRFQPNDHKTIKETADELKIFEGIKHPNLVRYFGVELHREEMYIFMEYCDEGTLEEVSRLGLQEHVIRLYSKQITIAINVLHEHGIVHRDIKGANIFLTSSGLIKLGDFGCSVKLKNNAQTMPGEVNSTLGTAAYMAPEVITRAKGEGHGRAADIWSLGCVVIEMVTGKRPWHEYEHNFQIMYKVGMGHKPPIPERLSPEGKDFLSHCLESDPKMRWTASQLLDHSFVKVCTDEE

[3] = molecular target: Serine/threonine-protein kinase MARK2 (Homo sapiens) (UniProt Q7KZI7); assay: Selectivity interaction (Kinase panel (KiNativ target engagement assay in Jurkat cells)) EUB0001635a MARK2; format: cell-based; settings: Selectivity number of off-targets 0.0, Selectivity number of targets 233.0, Source Knowledge https://www.sciencedirect.com/science/article/pii/S2451945619300674?via%3Dihub, at 1 µM
Serine/threonine-protein kinase MARK2 (Homo sapiens), sequence (Q7KZI7 whole entry): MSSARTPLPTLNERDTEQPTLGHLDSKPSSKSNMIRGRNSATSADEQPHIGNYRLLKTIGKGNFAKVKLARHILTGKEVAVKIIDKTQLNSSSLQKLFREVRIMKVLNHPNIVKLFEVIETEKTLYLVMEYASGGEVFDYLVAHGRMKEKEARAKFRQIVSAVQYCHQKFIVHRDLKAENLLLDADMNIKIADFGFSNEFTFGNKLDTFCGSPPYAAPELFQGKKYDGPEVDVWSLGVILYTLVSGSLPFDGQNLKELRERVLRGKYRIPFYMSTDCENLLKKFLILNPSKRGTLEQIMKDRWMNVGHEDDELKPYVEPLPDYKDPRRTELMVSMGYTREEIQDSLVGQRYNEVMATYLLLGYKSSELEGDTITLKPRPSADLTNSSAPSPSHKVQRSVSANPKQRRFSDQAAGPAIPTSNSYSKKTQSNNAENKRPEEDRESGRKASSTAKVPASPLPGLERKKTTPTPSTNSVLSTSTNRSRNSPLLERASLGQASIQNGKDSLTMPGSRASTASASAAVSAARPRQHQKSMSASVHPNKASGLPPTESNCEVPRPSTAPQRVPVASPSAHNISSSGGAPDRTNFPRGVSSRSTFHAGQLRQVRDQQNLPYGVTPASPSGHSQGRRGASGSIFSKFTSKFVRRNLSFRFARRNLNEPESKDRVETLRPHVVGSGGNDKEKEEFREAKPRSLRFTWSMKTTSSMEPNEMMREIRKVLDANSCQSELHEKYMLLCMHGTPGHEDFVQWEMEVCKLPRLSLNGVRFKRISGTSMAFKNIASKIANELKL

[4] = molecular target: Cyclin-dependent kinase-like 3 (Homo sapiens) (UniProt Q8IVW4); assay: Selectivity interaction (KinomeScan (DiscoverX)) EUB0000666a CDKL3; settings: at 10 µM
Cyclin-dependent kinase-like 3 (Homo sapiens), sequence (Q8IVW4 whole entry, looked up): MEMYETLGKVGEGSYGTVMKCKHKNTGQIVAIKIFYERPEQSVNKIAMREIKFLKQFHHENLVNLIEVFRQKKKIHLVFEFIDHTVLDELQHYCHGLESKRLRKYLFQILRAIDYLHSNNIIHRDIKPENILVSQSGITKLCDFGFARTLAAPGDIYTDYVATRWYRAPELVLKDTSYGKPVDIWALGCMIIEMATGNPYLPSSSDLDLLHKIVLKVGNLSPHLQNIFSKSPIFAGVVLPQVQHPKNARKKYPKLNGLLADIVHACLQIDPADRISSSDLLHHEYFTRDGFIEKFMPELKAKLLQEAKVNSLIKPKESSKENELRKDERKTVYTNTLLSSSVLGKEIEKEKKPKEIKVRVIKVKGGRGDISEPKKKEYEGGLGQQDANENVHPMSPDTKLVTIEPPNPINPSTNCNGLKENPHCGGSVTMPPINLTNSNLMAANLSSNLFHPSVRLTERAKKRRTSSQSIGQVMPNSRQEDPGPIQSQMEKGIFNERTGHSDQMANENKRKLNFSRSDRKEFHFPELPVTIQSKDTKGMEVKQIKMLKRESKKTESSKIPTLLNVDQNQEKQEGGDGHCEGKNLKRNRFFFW

[5] = molecular target: Serine/threonine-protein kinase MARK2 (Homo sapiens) (UniProt Q7KZI7); assay: Selectivity interaction (ActivX KiNativ screen (kinase selectivity in THP-1 cell lysates)) EUB0000639a MARK2; format: subcellular; settings: lysate, at 1 µM
[6] = molecular target: Tyrosine-protein kinase Lck (Homo sapiens, UniProt P06239); assay: Selectivity interaction (SelectScreen profiling (Invitrogen)) EUB0000607a LCK; settings: at 2 µM
Tyrosine-protein kinase Lck, sequence (P06239 2-509 limits assumed): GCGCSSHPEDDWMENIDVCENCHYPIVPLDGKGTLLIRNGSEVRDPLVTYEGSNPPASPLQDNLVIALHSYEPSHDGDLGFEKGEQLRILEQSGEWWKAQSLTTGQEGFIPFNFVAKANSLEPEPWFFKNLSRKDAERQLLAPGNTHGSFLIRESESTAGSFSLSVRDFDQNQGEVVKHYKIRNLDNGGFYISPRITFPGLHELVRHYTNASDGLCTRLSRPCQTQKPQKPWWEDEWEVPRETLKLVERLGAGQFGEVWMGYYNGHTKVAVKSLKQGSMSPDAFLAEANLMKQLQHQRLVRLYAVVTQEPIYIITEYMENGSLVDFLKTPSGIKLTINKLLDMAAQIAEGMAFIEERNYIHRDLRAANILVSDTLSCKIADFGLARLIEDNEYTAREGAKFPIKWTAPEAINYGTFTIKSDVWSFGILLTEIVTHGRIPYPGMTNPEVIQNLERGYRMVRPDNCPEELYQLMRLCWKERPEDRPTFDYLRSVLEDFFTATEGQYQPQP

[7] = molecular target: Dual specificity protein kinase CLK3 (Homo sapiens, UniProt P49761); assay: Selectivity interaction (KinomeScan (DiscoverX)) EUB0000618a CLK3; settings: at 10 µM
Dual specificity protein kinase CLK3, sequence (P49761 whole entry, looked up): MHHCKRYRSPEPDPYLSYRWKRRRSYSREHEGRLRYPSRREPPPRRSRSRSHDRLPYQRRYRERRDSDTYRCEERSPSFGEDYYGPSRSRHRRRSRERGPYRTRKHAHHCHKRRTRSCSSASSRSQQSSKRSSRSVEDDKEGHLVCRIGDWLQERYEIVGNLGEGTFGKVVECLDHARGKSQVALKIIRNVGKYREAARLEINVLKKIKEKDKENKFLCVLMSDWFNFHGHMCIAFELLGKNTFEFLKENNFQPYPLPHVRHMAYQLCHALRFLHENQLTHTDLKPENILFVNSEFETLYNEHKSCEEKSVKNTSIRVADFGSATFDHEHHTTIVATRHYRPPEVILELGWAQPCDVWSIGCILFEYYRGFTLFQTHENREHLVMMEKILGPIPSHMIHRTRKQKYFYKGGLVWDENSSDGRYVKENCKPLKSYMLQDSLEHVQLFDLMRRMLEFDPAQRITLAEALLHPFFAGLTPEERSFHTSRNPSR

[8] = molecular target: Estrogen receptor (Homo sapiens) (UniProt P03372); assay: Selectivity interaction (Eurofins CEREP Diversity Profile (receptors and ion channels)) EUB0000279b ESR1; settings: at 10 µM
Estrogen receptor (Homo sapiens), sequence (P03372 whole entry): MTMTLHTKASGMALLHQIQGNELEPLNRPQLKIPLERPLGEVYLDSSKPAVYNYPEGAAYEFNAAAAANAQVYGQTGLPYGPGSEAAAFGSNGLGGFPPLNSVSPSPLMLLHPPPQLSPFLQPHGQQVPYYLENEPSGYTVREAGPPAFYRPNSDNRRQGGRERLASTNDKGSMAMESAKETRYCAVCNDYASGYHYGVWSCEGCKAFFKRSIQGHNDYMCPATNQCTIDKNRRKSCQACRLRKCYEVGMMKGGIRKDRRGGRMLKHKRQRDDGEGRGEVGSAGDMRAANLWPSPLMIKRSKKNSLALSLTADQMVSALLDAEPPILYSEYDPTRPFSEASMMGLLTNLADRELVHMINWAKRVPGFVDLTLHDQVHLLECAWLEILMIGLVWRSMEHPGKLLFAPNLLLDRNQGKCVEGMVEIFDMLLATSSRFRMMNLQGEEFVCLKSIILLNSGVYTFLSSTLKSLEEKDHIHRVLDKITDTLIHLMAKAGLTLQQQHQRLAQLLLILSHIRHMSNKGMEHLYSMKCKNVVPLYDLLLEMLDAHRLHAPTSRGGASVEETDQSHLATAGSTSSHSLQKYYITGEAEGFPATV

[9] = molecular target: T2, Serine/threonine-protein kinase TAO1 (Homo sapiens) (UniProt Q7L7X3); assay: Selectivity interaction (ActivX KiNativ screen (ex vivo kinase selectivity in human PBMCs)) EUB0001619a TAOK1; format: cell-based; settings: PBMC, at 1 µM
T2 sequence (whole entry): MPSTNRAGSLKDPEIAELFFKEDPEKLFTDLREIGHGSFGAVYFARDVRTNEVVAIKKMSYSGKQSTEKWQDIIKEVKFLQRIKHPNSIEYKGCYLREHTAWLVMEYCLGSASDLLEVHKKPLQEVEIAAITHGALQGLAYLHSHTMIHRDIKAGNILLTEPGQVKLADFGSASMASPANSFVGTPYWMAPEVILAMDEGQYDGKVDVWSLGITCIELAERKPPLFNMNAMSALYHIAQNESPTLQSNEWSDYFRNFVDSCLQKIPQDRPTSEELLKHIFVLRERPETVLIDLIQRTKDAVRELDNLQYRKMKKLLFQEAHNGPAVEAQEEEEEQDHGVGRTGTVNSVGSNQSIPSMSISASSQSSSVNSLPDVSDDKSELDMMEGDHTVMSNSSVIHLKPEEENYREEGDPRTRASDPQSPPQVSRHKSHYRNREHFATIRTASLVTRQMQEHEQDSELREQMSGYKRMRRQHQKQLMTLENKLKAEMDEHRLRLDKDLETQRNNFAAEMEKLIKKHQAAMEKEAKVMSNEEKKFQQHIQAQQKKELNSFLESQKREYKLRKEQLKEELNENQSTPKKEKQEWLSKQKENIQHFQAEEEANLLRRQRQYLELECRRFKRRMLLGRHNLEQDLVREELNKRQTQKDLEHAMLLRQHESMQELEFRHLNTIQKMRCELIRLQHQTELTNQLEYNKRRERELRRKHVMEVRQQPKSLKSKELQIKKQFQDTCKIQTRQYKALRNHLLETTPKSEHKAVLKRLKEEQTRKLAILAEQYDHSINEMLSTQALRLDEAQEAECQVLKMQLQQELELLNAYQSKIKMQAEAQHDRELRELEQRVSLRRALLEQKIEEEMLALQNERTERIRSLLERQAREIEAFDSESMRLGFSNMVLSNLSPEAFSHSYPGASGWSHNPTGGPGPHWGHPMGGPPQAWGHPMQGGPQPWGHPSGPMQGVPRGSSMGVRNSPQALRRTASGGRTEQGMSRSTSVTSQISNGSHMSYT

## CC(C)(O)[C@H](F)CN1Cc2cc(NC(=O)c3cnn4cccnc34)c(N3CCOCC3)cc2C1=O
[1]
  dTM: -0.5 K

## CCC(=O)N1CCN(c2ccc(-n3c(=O)ccc4cnc5ccc(-c6cnc7ccccc7c6)cc5c43)cc2C(F)(F)F)CC1
[2]
  % of control: 47%

## C=CC(=O)Nc1ccc(C(=O)Nc2[nH]nc3c2CN(C(=O)N[C@H](CN(C)C)c2ccccc2)C3(C)C)cc1
[3]
  % of engagement: 6.7%

## O=C(NOC[C@H](O)CO)c1ccc(F)c(F)c1Nc1ccc(I)cc1F
[4]
  % of control: 98%

## CC[C@@H]1[C@H](F)C(=O)N[C@@H]1COc1nccc2cc(C(N)=O)c(OC)cc12 [ZIMLOVISERTIB]
[5]
  % of inhibition: 23.8%

## CNC(=O)Nc1ccc(-c2nc(N3CC4CCC(C3)O4)c3cnn(C4CCC5(CC4)OCCO5)c3n2)cc1
[6]
  % of inhibition: 10%

## O[C@H]1CC[C@H](Nc2ncc3nc(Nc4c(F)cc(F)cc4F)n([C@H]4CCOC4)c3n2)CC1
[7]
  % of control: 93%

## CC(=O)c1cc(-c2ccccc2OCC2CC2)c2ncccn12
[8]
  % of control: 98%

## N#Cc1cccc(-c2c[nH]c3ncnc(N4CCOCC4)c23)c1
[9]
  % of inhibition: 6%
